Reference: patent publication US11779559B2, “Compositions for treating fungal and bacterial biofilms and methods of using the same” (priority 2017, dated 2023)

Columns and labels:
C. albicans = assay: Disruption biofilm assay, fungal; type: cell-based, Candida albicans; conditions: disruption assay; C. albicans; 1% amino acid (unless specifically noted); p≤0.001
Description: (§1) Two types of biofilm assays were performed: a sustained inhibition assay and a disruption assay. The sustained inhibition assay assesses the compound's ability to prevent biofilm development throughout all stages of biofilm formation, while the disruption assay assesses the compound's ability to break up an existing mature biofilm. These assays are described in detail in the following article: Lohse, M. B., Gulati, M., Valle Arevalo, A., Fishburn, A., Johnson, A. D., and Nobile, C. […] Antimicrobial Agents and Chemotherapy 61: e02749-16.
(§2) All bacterial biofilm solutions were prepared in Trypic Soy Broth (TSB), supplemented with 1% glucose (henceforth referred to as TSB-G). All subsequent procedures were performed in a manner that maintained sterility. A solution of each amino acid to be tested was prepared in weight to volume concentrations ranging from 0.1-5.0%. Amino acids were also tested in combinations. Compound solutions were homogenized with gentle agitation in the dark (4° C., 24 hours) before use.
Fungal strains were streaked on Yeast Peptone Dextrose (YPD) agar plates and incubated at 30° C. for 48 hours. A single colony from each strain to be tested was inoculated into YPD broth and grown for 12 hours, at 30° C., shaking at 225 rpm. […] The cells were allowed to adhere to the plate for 90 minutes at 37° C. with shaking (350 rpm). […] The plate was further incubated for 24 hours at 37° C. with shaking (350 rpm). Media was carefully aspirated and the biofilm was measured by optical density at 600 nm. […] The cells were allowed to adhere to the plate for 90 minutes at 37° C. with shaking (350 rpm). […] The plate was further incubated for 24 hours at 37° C. with shaking (350 rpm). […] The plate was further incubated for 24 hours at 37° C. with shaking (350 rpm). Media was carefully aspirated and the biofilm was measured by optical density at 600 nm.

S. aureus = assay: Sustained inhibition biofilm assay, bacterial; type: cell-based, Staphylococcus aureus; conditions: sustained inhibition assay; S. aureus; 1% amino acid (unless specifically noted); p≤0.001
Description: as §1, §2
Bacterial strains were streaked on Blood Agar plates (5% sheep blood in Tryptic Soy Agar) and incubated at 37° C. for 24 hours. A single colony from each strain to be tested was inoculated in a TSB broth and grown for 12 hours, at 37° C. with shaking (225 rpm). For the bacterial biofilm inhibition assays, 1 μL of saturated overnight cell culture was added to either 80 μL of TSB-G, or TSB-G supplemented with the amino acid compound solution to be tested, in a 384-well plate. The cells were allowed to adhere to the plate for 60 minutes at 37° C. without shaking. The media was carefully aspirated and 80 μL of TSB-G, or TSB-G supplemented with the amino acid compound solution was added to the plate. The plate was further incubated for 24 hours at 37° C. without shaking. Media was carefully aspirated and the biofilm was measured by optical density at 600 nm. Eight or twelve replicates were performed for each tested condition and the reported values are normalized to the control (TSB-G media only). For the bacterial biofilm disruption assays, 80 μL of TSB-G was added to the plate, along with 1 μL of overnight cell culture. The cells were allowed to adhere to the plate for 60 minutes at 37° C. with no shaking. The media was carefully aspirated and 80 μL of TSB-G was added to the plate. The plate was further incubated for 24 hours at 37° C. with no shaking. Media was carefully aspirated from the mature biofilm and 80 μL of TSB-G, or TSB-G supplemented with the amino acid to be tested, was gently added to the plate. The plate was further incubated for 24 hours at 37° C. without shaking. Media was aspirated and the biofilm was measured by optical density at 600 nm. Twelve replicates were performed for each tested condition and the reported values are normalized to the control (TSB-G media only).

## N[C@@H](CC(=O)O)C(=O)O [Aspartic Acid, L-aspartic acid]
C. albicans
  Reduce F Biofilm: ●● (two dots [ie. ••] signifies major effect (greater than about 30% change))
S. aureus
  Reduce B Biofilm: ●● (two dots [ie. ••] signifies major effect (greater than about 30% change))
